Patent US12708620B2, “Prodrugs and medical uses thereof” (priority 2018, dated 2026)
pIC50: −log10 of the molar value. Read-outs that look alike come from different tables or passages of the source.

Columns and labels:
[1] = preliminary toxicology study, intravenous administration; assay type: in vivo, dog
Description: Preliminary toxicology studies of the intravenous administration of Cpd.11 Ms in rats and dogs according to a dosing regimen consisting of 3 consecutive days of administration in a 3 weekly cycle (QDx3/cycle) have shown that potential haematological toxicity in tissues such as the bone marrow, the thymus and lymph nodes (known to have hypoxic niches) can be minimized at dosages at or below 400 mg/kg in the rat and at or below 100 mg/kg in the dog. As such, these levels correspond to 2360 mg/m^2 and 2000 mg/m^2, respectively, in human subjects. […] Alternative dosing regimens also include weekly administration for up to 3 or 4 consecutive times of each 3 or 4 weekly cycle. In addition, also an initial dose of QDx3 or QDx5 could be combined with less frequent administration schedules that may still allow a therapeutic effect over tumor growth and development, such as up to 3 or 4 weekly dosages in 3 to 4 weekly cycles, or once a month (or every three-four weeks) schedules that be applied with or without the parallel treatment with the appropriate standard-of-care protocols.

[2] = system: NCI-H1650; experiment: resazurin-based potency assay, normoxia vs anoxia; assay type: cell-based, human; details: for pIC50: Homo sapiens, 4 h exposure then 96 h
Description: (§1) The IC50 values were obtained using the resazurin-based potency assay under anoxic (<0.01% O2) and/or normoxic conditions (21% O2). The hypoxia cytotoxicity ratio (HCR) is calculated as the ratio of IC50 value […] (HCR=IC50 normoxia/IC50 anoxia).
(§2) For anoxic condition, the complete medium for each cell line (25 ml in a T25 or 80 ml in a T80) was equilibrated in the anoxic chamber 48 h before use to allow an as large as possible interchange between media and atmosphere, agitating the flask once a day and just before use. The 96-well plates for cell seeding and the 96-well plates for preparation of a mother plate containing the compound to be tested (e.g. Cpd.11 Ms) at appropriate concentrations as well as disposable reagent reservoirs and pipet tips that are required for cell seeding under anoxic conditions were placed in anoxia at least 72 h before use. The mother plate for treatment of the cells under anoxia was prepared with anoxic medium and in anoxia pre-incubated plastics, the mother plate for treatment of the cells in normoxia was prepared with normoxic medium in a standard cell culture hood.
(§3) Cell seeding was performed starting from a cell suspension (70% confluent flasks of cells). Appropriate cell numbers/volumes were used at the pre-determined cell density (typically 100 μl/well) as determined by performing a growth curve experiment were calculated. For anoxic conditions, the appropriate number of cells was transferred to the anoxic chamber and diluted to the appropriate cell concentration in anoxic complete medium. The cells were allowed to adhere for 2 hours in the anoxic chamber at 37° C. In normoxic conditions, usual cell seeding and complete medium protocols were used (in a volume of 100 μl/well in 96-well plates). The cells were allowed to adhere for 2 hours at 37° C. in a regular cell culture CO2 incubator. In both conditions, the remaining empty wells in 96-well plates were filled with 200 μl anoxic or normoxic medium to prevent evaporation.
(§4) Fresh Cpd.11 Ms stock solution was thawed just before the experiment and shielded from the light. A 96-well microtiter plate was filled with 176.4 μl of complete normoxic (RT) or anoxic medium in the first column and 120 μl of complete normoxic or anoxic medium with 2% DMSO for the other columns of wells. 3.6 μl per well of the compound stock solution (Cpd.11, Cpd.11 Ms, Cpd.11c, or Cpd.11d; 150 mM) was added to the first column. The solution of the first column was pipetted up and down and 60 μl was transferred to the second column to perform 1/3 serial dilutions pipetting up and down 3 times between each transfer. This was repeated until the 11th column. No Cpd.11 Ms was added to the 12th column. The plate was prepared no longer than 30 minutes before use and protected from direct light exposure. Two hours after seeding the cells, 100 μl of the mother plate was added to each well and plates remained for 4 h in the anoxic chamber or in cell culture incubator at 37° C. After 4 h, the plate in the anoxic chamber was transferred to normoxia. Visual inspection of all plates (few random wells per plate) under microscope was performed and medium was removed from all plates by aspiration. Cells were washed once with 200 μl PBS (RT) and 200 μl of fresh normoxic complete medium (RT) was added to each well (including all wells without cells). All plates were incubated for 96 hours in normoxia at 37° C. in a standard cell culture incubator.
(§5) For the cell viability assay, the resazurin final working solution was prepared freshly by diluting the resazurin stock solution (0.1 mg/ml) 1/10 in complete medium (RT) of the respective cell lines to obtain a final concentration of 0.01 mg/ml resazurin. After 96 hours incubation in normoxia, a visual inspection of all the plates (few random wells per plate) was performed under the microscope and the medium in each well was removed by aspiration. […]

[3] = system: HCC1937; experiment: resazurin-based potency assay, normoxia vs anoxia; assay type: cell-based, human; details: for pIC50: Homo sapiens, 4 h exposure then 96 h
Description: as §1, §2, §3, §4, §5

[4] = system: NCI-H1975; experiment: resazurin-based potency assay, normoxia vs anoxia; assay type: cell-based, human; details: for pIC50: Homo sapiens, 4 h exposure then 96 h
Description: as §1, §2, §3, §4, §5

[5] = system: PANC-1; experiment: resazurin-based potency assay, normoxia vs anoxia; assay type: cell-based, human; details: for pIC50: Homo sapiens, 4 h exposure then 96 h
Description: as §1, §2, §3, §4, §5

[6] = system: DMS114; experiment: resazurin-based potency assay, normoxia vs anoxia; assay type: cell-based, human; details: for pIC50: Homo sapiens, 4 h exposure then 96 h
Description: as §1, §2, §3, §4, §5

[7] = system: BxPC-3; experiment: resazurin-based potency assay, normoxia vs anoxia; assay type: cell-based, human; details: for pIC50: Homo sapiens, 4 h exposure then 96 h
Description: as §1, §2, §3, §4, §5

[8] = system: BT-474; experiment: resazurin-based potency assay, normoxia vs anoxia; assay type: cell-based, human; details: for pIC50: Homo sapiens, 4 h exposure then 96 h
Description: as §1, §2, §3, §4, §5

[9] = system: MDA-MB-231; experiment: resazurin-based potency assay, normoxia vs anoxia; assay type: cell-based, human; details: for pIC50: Homo sapiens, 4 h exposure then 96 h
Description: as §1, §2, §3, §4, §5

[10] = anoxia (<0.01% O2), read-out: IC50 Average for Cpd.11Ms ANX (SD)
[11] = normoxia (21% O2), read-out: IC50 Average for Cpd.11Ms NRX (SD)

## CCN1CCN(C(=O)c2cc(N(CCBr)CCOS(C)(=O)=O)c(S(C)(=O)=O)cc2[N+](=O)[O-])CC1.CS(=O)(=O)O [Cpd.11 Ms, 4-(5-((2-bromoethyl) (2-((methylsulfonyl)oxy)ethyl)amino)-4-(methylsulfonyl)-2-nitrobenzoyl)-1-ethylpiperazin-1-ium methanesulfonate]
[1]; dog, intravenous, QDx3 in a 3 weekly cycle
  dosage at which potential haematological toxicity (bone marrow, thymus, lymph nodes) can be minimized: ≤ 100 mg/kg
[1]; from 100 mg/kg in the dog
  corresponding level in human subjects of the dog dosage: 2000 mg/m^2
[2]; HCR=IC50 normoxia/IC50 anoxia
  Average of HCR (SD): 28.2 (5.4)
[2]; [10]
  pIC50: 4.35
[2]; [11]
  pIC50: 2.90
[3]; HCR=IC50 normoxia/IC50 anoxia
  Average of HCR (SD): 28.8 (8.3)
[3]; [10]
  pIC50: 4.27
[3]; [11]
  pIC50: 2.84
[4]; HCR=IC50 normoxia/IC50 anoxia
  Average of HCR (SD): 52.6 (36.4)
[4]; [10]
  pIC50: 4.54
[4]; [11]
  pIC50: 2.94
[5]; HCR=IC50 normoxia/IC50 anoxia
  Average of HCR (SD): 24.0 (1.0)
[5]; [10]
  pIC50: 4.36
[5]; [11]
  pIC50: 2.98
[6]; HCR=IC50 normoxia/IC50 anoxia
  Average of HCR (SD): 96.3 (26.2)
[6]; DMS-114, anoxia (<0.01% O2), read-out: IC50 Average for Cpd.11Ms ANX (SD)
  pIC50: 5.21
[6]; DMS-114, normoxia (21% O2), read-out: IC50 Average for Cpd.11Ms NRX (SD)
  pIC50: 3.25
[7]; HCR=IC50 normoxia/IC50 anoxia
  Average of HCR (SD): 22.7 (4.2)
[7]; [10]
  pIC50: 4.17
[7]; [11]
  pIC50: < 2.82
[8]; HCR=IC50 normoxia/IC50 anoxia
  Average of HCR (SD): 102.6 (15.2)
[8]; [10]
  pIC50: 4.83
[8]; [11]
  pIC50: < 2.82
[9]; HCR=IC50 normoxia/IC50 anoxia
  Average of HCR (SD): 10.4 (3.0)
[9]; [10]
  pIC50: 3.92
[9]; [11]
  pIC50: 2.90
